Patent US20160299147A1, “SCREENING, DIAGNOSIS, PROGNOSTICATION AND TREATMENT OF OVARIAN CANCER” (AFG TECHNOLOGIES S.À.R.L., priority 2013, published 2016)

Experiments:
Format in all cases: cell-based
Caov-3 cells [1] = assay: Apoptotic DNA ladder detection in Caov-3 cells; details: 5 nM paclitaxel for 24 hrs
Procedure: Caov-3 cells (ATCC® HTB-75TM) were cultured in DMEM (Life Technologies; Cat. No. 31966-021) supplemented with 10% FBS (Life Technologies; Lot #41Q822OK) and GlutaMAXTM (Life Technologies; Cat. No. 35050-038). […] Cells were cultured at 37° C. with 5% CO2 and ≧95% humidity. Cells were harvested following incubation with TrypLETM Express (Life Technologies; Cat. No. 126005-010). Cell density and viability were determined by trypan blue exclusion using a Countess® Automated Cell Counter (Life Technologies; Mod No. C10281). […] Where indicated, Caov-3 cells were treated with 100 ng/ml IGFR blocking antibody (Millipore; Lot #30080) for 24 hrs, 100 ng/ml IGF-1 (Life Technologies; Lot #73159414A) for 48 hrs or 5 nM paclitaxel (Taxol® Sigma Aldrich; Lot #091M1781V) for 24 hrs. Ovcar-3 cells, where indicated, were treated with 100 ng/ml IGF-1 for 48 hrs or 25 nM paclitaxel for 24 hrs. Caov-3 or Ovcar-3 cells were plated into [MUT]^2 culture flasks in a volume of 25 ml. The cells were seeded at 1×10^6 cells per flask as determined using the CountessTM automated cell counter (Life Technologies). Where indicated paclitaxel, IGF-1, or IGF-1+paclitaxel were added. […] DNA was resuspended in 30 μl nuclease-free water (Ambion; Cat. No. AM9937) and was quantified using a NanoVue Plus Spectrophotometer (GE Healthcare). […]

Caov-3 cells [2] = assay: XTT viability assay in Caov-3 cells
Procedure: Caov-3 or Ovcar-3 cells were plated at a density of 1×10^4 cells per well into a 96-well tissue culture plate. The cell number was determined using the Countess™ automated cell counter (Life Technologies). Where indicated paclitaxel and IGF-1 were added. The final volume of the tissue culture medium was 0.1 ml. Prior to the experiment for each 96 well plate, 5 ml XTT solution and 0.1 ml activation reagent (New England Biolabs; Cat. No. 9095S) were mixed. 50 μl of the activated solution was added to each well and incubated at 37° C. for 4 hrs. The plates were shaken gently to evenly distribute the dye in the wells. After the 4 hrs incubation the absorbance of the samples was measured using a Spectramax M5e plate reader (Molecular Devices; Mod. No. M5e) at a wavelength of 450 nm.

Ovcar-3 cells [3] = assay: XTT viability assay in Ovcar-3 cells; details: 25 nM paclitaxel for 24 hrs (5x the concentration used in Caov-3)
Procedure: Caov-3 cells (ATCC® HTB-75™) were cultured in DMEM (Life Technologies; Cat. No. 31966-021) supplemented with 10% FBS (Life Technologies; Lot #41Q822OK) and GlutaMAX™ (Life Technologies; Cat. No. 35050-038). Ovcar-3 cells (ATCC® HTB-161™) were cultured in RPMI 1640 (LGC Standards; Cat. No. 30-2001) supplemented with 20% FBS (Life Technologies) and 10 μg/ml bovine insulin (Sigma Aldrich, Cat. No. 10516). Cells were cultured at 37° C. with 5% CO2 and ≧95% humidity. Cells were harvested following incubation with TrypLE™ Express (Life Technologies; Cat. No. 126005-010). Cell density and viability were determined by trypan blue exclusion using a Countess® Automated Cell Counter (Life Technologies; Mod No. C10281). […] Where indicated, Caov-3 cells were treated with 100 ng/ml IGFR blocking antibody (Millipore; Lot #30080) for 24 hrs, 100 ng/ml IGF-1 (Life Technologies; Lot #73159414A) for 48 hrs or 5 nM paclitaxel (Taxol® Sigma Aldrich; Lot #091M1781V) for 24 hrs. Ovcar-3 cells, where indicated, were treated with 100 ng/ml IGF-1 for 48 hrs or 25 nM paclitaxel for 24 hrs. […] The cell number was determined using the Countess™ automated cell counter (Life Technologies). […] After the 4 hrs incubation the absorbance of the samples was measured using a Spectramax M5e plate reader (Molecular Devices; Mod. No. M5e) at a wavelength of 450 nm.

Ovcar-3 cells [4] = assay: Mitotic phase distribution analysis (H3S10ph immunostaining) in Ovcar-3 cells; details: 100 ng/ml IGF-1 for 48 hrs, vs untreated, p=0.055
Ovcar-3 cells [5] = assay: Invasion assay (Matrigel Boyden chamber) in Ovcar-3 cells; details: 100 ng/ml IGF-1, vs untreated, n=2
Procedure: FBS (10%) mediated cell migration through an extracellular matrix was measured by Boyden chamber assay [(BD Biocoat™ Matrigel invasion chamber) BD Biosciences; Cat. No. 354480)] following the manufacturer's instructions. Briefly, Caov-3 cells were transfected with PAPPA siRNA or control siRNA (negative control) as described above. Caov-3 cells were treated with IGFR blocking antibody or untreated as described previously. Ovcar-3 cells were treated with IGF-1 or untreated as described previously. Prior to transfections or treatments the cells were serum starved for 24 hrs. Caov-3 cells were collected in DMEM medium containing 5% BSA, counted and 0.5×10^5 cells were added to each invasion assay chamber. Ovcar-3 cells were collected in RPMI medium containing 5% BSA, counted and 2×10^5 cells were added to each invasion assay chamber. After incubation for 48 hrs the invasion chamber inserts were washed with PBS, fixed in 4% formaldehyde for 5 min, stained with 0.01% crystal violet or haematoxylin and cells from random areas on the filters were counted.

Row | Compound | apoptosis (DNA apoptosis kit) (Caov-3 cells [1]) | cell viability (XTT assay) (Caov-3 cells [2]; 5 nM paclitaxel for 24 hrs) | response to paclitaxel treatment (morphology, XTT viability, apoptosis) (Ovcar-3 cells [3]) | mitotic delay (mitotic cells in prophase/prometaphase) (Ovcar-3 cells [4]) | cell viability (XTT assay) (Caov-3 cells [2]; 100 ng/ml IGF-1 for 48 hrs, added alone) | invasiveness (number of invading cells, Boyden chamber assay) (Ovcar-3 cells [5])
1 | CC(=O)O[C@H]1C(=O)[C@@]2(C)[C@H]([C@H](OC(=O)c3ccccc3)[C@]3(O)C[C@H](OC(=O)[C@H](O)[C@@H](NC(=O)c4ccccc4)c4ccccc4)C(C)=C1C3(C)C)[C@]1(OC(C)=O)CO[C@@H]1C[C@@H]2O [paclitaxel] | induction of apoptosis | decreased | not responding | – | – | –
2 | IGF-1: insulin-like growth factor-1, recombinant, exogenously added (Life Technologies); IGF-1 receptor agonist | – | – | – | decrease | no effect | reduced
